Target: T1, RIPK1 (Homo sapiens, UniProt Q13546)
T1 construct: AA 1–479, GST fusion
T1 sequence (Q13546 1-479): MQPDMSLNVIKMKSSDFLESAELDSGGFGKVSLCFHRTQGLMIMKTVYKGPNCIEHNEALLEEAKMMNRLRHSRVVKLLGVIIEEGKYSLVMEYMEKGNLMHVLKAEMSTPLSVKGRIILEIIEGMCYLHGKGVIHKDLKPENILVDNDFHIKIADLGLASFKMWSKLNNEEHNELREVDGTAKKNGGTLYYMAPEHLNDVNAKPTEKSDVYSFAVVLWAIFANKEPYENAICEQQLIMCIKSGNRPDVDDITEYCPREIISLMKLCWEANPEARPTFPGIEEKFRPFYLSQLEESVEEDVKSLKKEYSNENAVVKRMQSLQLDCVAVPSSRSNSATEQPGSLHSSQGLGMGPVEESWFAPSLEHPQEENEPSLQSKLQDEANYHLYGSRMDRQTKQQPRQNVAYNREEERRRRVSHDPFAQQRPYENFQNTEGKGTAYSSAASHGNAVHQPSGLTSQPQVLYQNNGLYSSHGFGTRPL
Experiment: ADP-Glo in vitro kinase assay with recombinant RIPK1 ([…] reduction at […])
Type: biochemical

With `CC(C)(C)c1cc(O)ccc1O` [TBHQ] the inhibition at 100 µM was about 60%.
